Measured values taken from patent US20180250232A1, “PROCESS FOR PREPARING SPRAY DRIED SOLID DISPERSIONS OF (S)-N-(3-(6-ISOPROPOXYPYRIDIN-3-YL)-1H-INDAZOL-5-YL)-1-(2-(4-(4-(1-METHYL-1H-1,2,4-TRIAZOL-3-YL)PHENYL)-3,6-DIHYDROPYRIDIN-1(2H)-YL)-2-OXOETHYL)-3-(METHYLTHIO)PYRROLIDINE-3-CARBOXAMIDE FOR PHARMACEUTICAL PREPARATIONS” (Merck Sharp & Dohme Corp., priority 2015, published 2018).

Assay: polymorph studies / competition slurry experiments
Format: physicochemical
Experimental: Preliminary polymorph screening for (S)—N-(3-(6-isopropoxypyridin-3-yl)-1H-indazol-5-yl)-1-(2-(4-(4-(1-methyl-1H-1,2,4-triazol-3-yl)phenyl)-3,6-dihydropyridin-1(2H)-yl)-2-oxoethyl)-3-(methylthio)pyrrolidine-3-carboxamide were conducted by solvent-mediated slurry experiments in 10 different solvents or solvent mixtures using the amorphous compound as the starting material.

more stable form in competition slurry experiments (hydrate form 1 and 2 as seeds in H2O/methanol mixture (H2O activity of 0.5), room temperature and 4° C.): more stable form in both experiments
SMILES: CS[C@@]1(C(=O)Nc2ccc3[nH]nc(-c4ccc(OC(C)C)nc4)c3c2)CCN(CC(=O)N2CC=C(c3ccc(-c4ncn(C)n4)cc3)CC2)C1 [hydrate form 2, (S)—N-(3-(6-isopropoxypyridin-3-yl)-1H-indazol-5-yl)-1-(2-(4-(4-(1-methyl-1H-1,2,4-triazol-3-yl)phenyl)-3,6-dihydropyridin-1(2H)-yl)-2-oxoethyl)-3-(methylthio)pyrrolidine-3-carboxamide crystalline free base hydrate form 2]
stability of crystalline form (polymorph studies) (room temperature): most stable crystalline form at room temperature
